Measured values: patent publication US5015661A, “Chromanes and their pharmaceutical compositions and methods” (Hoffmann-La Roche Inc., priority 1989, dated 1991)
pIC50: −log10 of the molar value.

molecular target: T1, Δ^5 -lipoxygenase from rat basophilic leukemia (RBL-1) cells (Rattus norvegicus, UniProt P12527); test: In vitro test for Δ^5 -lipoxygenase inhibitors (5-LO), RBL-1 cell enzyme, 5-HETE radioimmunoassay; assay type: biochemical; details: RBL-1 5-LO; 10 min preincubation; 8.25 μM arachidonic acid, 10 min at 37° C.; 5-HETE formation; read-out: 5-LO IC-50
T1 construct: endogenous in cells; host or cells: RBL-1 rat basophilic leukemia cells (ATCC CRL 1378); 113,000×g supernatant (cytosolic fraction)
T1 sequence (P12527 1-673): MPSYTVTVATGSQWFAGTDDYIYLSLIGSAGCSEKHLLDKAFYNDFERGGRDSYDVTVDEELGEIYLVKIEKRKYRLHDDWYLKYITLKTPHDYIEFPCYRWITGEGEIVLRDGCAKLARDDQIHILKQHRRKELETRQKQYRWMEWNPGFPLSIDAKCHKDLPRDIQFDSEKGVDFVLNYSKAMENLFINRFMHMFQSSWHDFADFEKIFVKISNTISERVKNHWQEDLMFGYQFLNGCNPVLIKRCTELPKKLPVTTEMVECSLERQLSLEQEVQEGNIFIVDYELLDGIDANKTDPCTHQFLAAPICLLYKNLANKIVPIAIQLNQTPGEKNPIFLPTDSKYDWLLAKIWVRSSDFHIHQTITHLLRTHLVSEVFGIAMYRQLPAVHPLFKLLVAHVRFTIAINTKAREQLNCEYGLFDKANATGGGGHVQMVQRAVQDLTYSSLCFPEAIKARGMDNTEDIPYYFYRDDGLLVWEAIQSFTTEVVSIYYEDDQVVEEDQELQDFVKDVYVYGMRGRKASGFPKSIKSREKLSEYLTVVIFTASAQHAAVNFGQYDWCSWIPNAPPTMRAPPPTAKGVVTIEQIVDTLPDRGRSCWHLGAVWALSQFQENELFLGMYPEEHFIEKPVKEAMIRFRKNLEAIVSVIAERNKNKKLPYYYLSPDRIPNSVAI
Procedure: IN VITRO TEST FOR Δ^5 -LIPOXYGENASE INHIBITORS Compounds of formula I of the invention were tested for their effect on Δ^5 -lipoxygenase from rat basophilic leukemia (RBL-1) cells. Materials. RBL-1 cells (CRL 1378) were obtained from the American TYpe Culture Collection, Rockville, MD. DMEM and glutamine were purchased from Flow Labs, McLean, VA. FBS (Gibco, Grand Island, NY) was heat-inactivated for 1 hour at 56° C. Reagents for protein determinations were obtained from Biorad, Rockville Center, NY. Arachidonic acid (approx. 99%), ATP (disodium slat), BHT, dextran (clinical grade), tetrasodium EDTA, gelatin, gentamycin sulfate solution, reduced glutathione, 1 M HEPES buffer, indomethacin, NaCl, reduced NADpH, Trizma 7.2, and Trizma 8.5 were purchased from Sigma Chemical, St. Louis, MO. CaCl2 dihydrate, Norit A charcoal, and citric acid monohydrate were obtained from Fisher Scientific, Pittsburgh, PA. […] MA. A synthetic 5-HETE standard was supplied by Dr. M. Rosenberger, Dept. of Medicinal Chemistry, Hoffmann-La Roche, Nutley, NJ; [see Corey, E.J., and Hashimoto, S. (1981 ) Tet. Letters, 22, 299-302 for method of preparation]. Ecoscint liquid sointillation fluid was purchased from National Diagnostics, Sommerville, NJ. Isolation of 5-lipoxygenase. […] Approximately 7-9 days after thawing, RBL-1 cells growing in log phase were seeded at a density of 7500 viable cells/ml in a closed 89-liter spinner flask. The cells were stirred constantly for 3-4 days at 37° C. until they reached a density greater than 500,000/ml but less than 800,00/ml. RBL-1 cells were harvested by centrifugation at 4° C. at 1500×g for 10 minutes and were washed 3 times with ice cold 0.05 M tris-HCl, pH 7.2, tetrasodium EDTA (buffer 1). The cells were washed last in 0.05 M Tris-HCl containing 14 μM indomethacin, 1 mM glutathione, 1.5 mM NaCl, and 1 mM tetrasodium EDTA (buffer 2), resuspended at a density of 5×108'/ml (approximately 10 ml) and disrupted manually at 4° C. using a 40 ml Dounce (type A pestle) homogenizer. After 5 minutes of homogenization. 95% cell lysis was confirmed by phase contrast microscopy. The broken cells were diluted 1:2 with buffer 2 and centrifuged at 12,380×g for 10 minutes at 4° C. to pellet cellular debris and granules. The 12,380×g supernatant was centrifuged at 113,000×g for 60 minutes to pellet microsomes. The high-speed supernatant (5.9±0.48 mg/ml protein) was frozen immediately in 1 ml aliquots using a dry ice/acetone bath. The isolated cytosolic fraction was stored in liquid N2 for up to 8 weeks without loss of 5-LO enzyme activity. Lipoxygenase Assay. Compounds Were dissolved at 25 mM concentration in DMSO, then diluted to final concentrations using 95% ethanol. For a typical enzyme assay, the partially purified 5-LO preparation was preincubated with drug or vehicle for 10 minutes at 30° C. The assay tubes were then transferred at a 37° C. water bath where they received arachidonic acid (8.25 μM final concentration) to initiate 5-LO activity. In addition to enzyme and substrate, each reaction tube contained: 12.5 μmoles of Tris-HCl (pH 7.2), 25 nmoles glutathione, 0.35 nmoles indomethacin and 1.25 μmoles of CaCl2 and ATP to yield a total of volume of 250 μl. The enzyme reaction was terminated after 10 minutes by the addition of 75μl […] citric acid to yield pH 3.5. The samples were immediately cooled on ice and neutralized by dilution with 0.05 M Tris-HCl, pH 8.5, which contained 25 mg/1 BHT. A boiled cytosol control was placed at the end of each assay to measure non-enzymatic oxidation of arachidonic acid. The mean specific activity of the 5-LO enzyme preparation was approximately 66.16±14.39 pmol 5-HETE/min/mg protein. Radioimmunoassay for 5-HETE. Under the assay conditions described, the 5-LO catalyzed the conversion of arachidonic acid to 5-HPETE which, as a consequence o peroxidase activity, was reduced to 5-HETE. A specific radioimmunoassay was employed to quantitate the amount (pmoles) of 5-HETE formed during the enzyme reaction. […]

| Structure (SMILES) | pIC50 |
| --- | --- |
| COc1cc(CO)cc(C#CC2(C)CCc3c(C)c(O)c(C)c(C)c3O2)c1O (racemic) [Example 29, rac-3-[(3,4-Dihydro-6-hydroxy-2,5,7,8-tetramethyl-2H-1-benzopyran-2-yl)ethynyl]-4-hydroxy-5-methoxybenzenemethanol] | 6.89 |
| Cc1c(C)c2c(c(C)c1O)CCC(C)(C#Cc1ccccc1N)O2 (racemic) [Example 40, rac-2-[(2-Aminophenyl)ethynyl]-3,4-dihydro-2,5,7,8-tetramethyl-2H-1-benzopyran-6-ol] | 7.70 |
| Cc1c(C)c2c(c(C)c1O)CCC(C)(C#Cc1csc3ccccc13)O2 (racemic) [Example 16, rac-[2-(Benzo[b]thiophen-3-yl)ethynyl]-3.4-dihydro-2,5,7,8-tetramethyl-2H-1-benzopyran-2H-1-benzopyran-6-ol] | 8.80 |
| Cc1c(C)c2c(c(C)c1O)CCC(C)(C#Cc1cccc3ccccc13)O2 (racemic) [Example 39, rac-3,4-Dihydro-2,5,7,8-tetramethyl-2-(1-naphthyl)ethynyl-2H-1-benzopyran-6-ol] | 6.30 |
| COc1ccc(C#CC2(C)CCc3c(C)c(O)c(C)c(C)c3O2)cc1OC(C)=O (racemic) [Example 20, rac-2-[(3-Acetyloxy-4-methoxyphenyl)ethynyl]-3.4-dihydro-2,5,7,8-tetramethyl-2H-1-benzopyran-6-ol] | 7.62 |
| Cc1c(C)c2c(c(C)c1O)CCC(C)(C#Cc1cccc(C(F)(F)F)c1)O2 (racemic) [Example 35, rac-2-{[3-(Trifluoromethyl)phenyl]ethynyl-3,4-dihydro-2,5,7,8-tetramethyl-2H-1-benzopyran-6-ol] | 6.72 |
| COC(=O)c1cc(C#CC2(C)CCc3c(C)c(O)c(C)c(C)c3O2)ccc1O (racemic) [Example 23, rac-5-(3,4-Dihydro-6-hydroxy-2,5,7,8-tetramethyl-2H-1-benzopyran-2-yl)ethynyl]-2-hydroxybenzoic acid methyl ester] | 6.80 |
| CC(=O)Oc1cc(C#CC2(C)CCc3c(C)c(O)c(C)c(C)c3O2)ccc1OCc1ccccc1 (racemic) [Example 41, rac-2-{[3-Acetyloxy-4-(phenylmethoxy)phenyl]ethynyl}-3,4-dihydro-2,5,7,8-tetramethyl-2H-1-benzopyran-6-ol] | 7.49 |
| CCCCc1ccc(C#CC2(C)CCc3c(C)c(O)c(C)c(C)c3O2)s1 (racemic) [Example 31, rac-2-[(5-Butyl-2-thienyl)ethynyl]-3,4-dihydro-2,5,7,8-tetramethyl-2H-1-benzopyran-6-ol] | 6.00 |
| COc1cc(CO)cc2cc(C3(C)CCc4c(C)c(O)c(C)c(C)c4O3)oc12 (racemic) [Example 55, rac-2-(3,4-Dihydro-6-hydroxy-2,5,7,8-tetramethyl-2H-1-benzopyran-2-yl)-7-methoxybenzofuran-5-methanol] | 8.52 |
| Cc1c(C)c2c(c(C)c1O)CCC(C)(C#Cc1ccc(-c3ccccn3)s1)O2 (racemic) [Example 26, rac-3,4-Dihydro-2,5,7,8-tetramethyl-2-{[5-(2-pyridinyl)-2-thienyl]ethynyl}-2H-1-benzopyran-6-ol] | 6.80 |
| Cc1c(C)c2c(c(C)c1O)CCC(C)(C#Cc1ccc3c(c1)N(C)C(=O)CO3)O2 (centres unmarked) [Example 48] | 7.49 |
| Cc1c(C)c2c(c(C)c1O)CCC(C)(C#Cc1ccccc1O)O2 (racemic) [Example 50 (2-HO-phenyl), rac-3,4-Dihydro-2-[(2-hydroxyphenyl)ethynyl]-2,5,7,8-tetramethyl-2H-1-benzopyran-6-ol] | 8.22 |
| Cc1c(C)c2c(c(C)c1O)CC[C@](C)(C#Cc1cccs1)O2 [Example 5, (R)-3,4-Dihydro-2,5,7,8-tetramethyl-2-[(2-thienyl)ethynyl]-2H-1-benzopvran-6-ol] | 7.82 |

The remaining lines, values ahead:

| pIC50 | Structure (SMILES) |
| --- | --- |
| 7.74 | Cc1c(C)c2c(c(C)c1O)CCC(C)(c1cc3ncccc3o1)O2 (racemic) [Example 52, rac-3,4-Dihydro-2-(furo[3,2-b]pyridine-2-yl)-2,5,7,8-tetramethyl-2H-1-benzopyran-6-ol] |
| 7.30 | Cc1c(C)c2c(c(C)c1O)CCC(C)(CCc1cccs1)O2 (racemic) [Example 57, rac-3,4-Dihydro-2,5,7,8-tetramethyl-2-[2-(2-thienyl)ethyl]-2H-1-benzo-pyran-6-ol] |
| 6.85 | CCCCc1ccc(CCC2(C)CCc3c(C)c(O)c(C)c(C)c3O2)s1 (racemic) [Example 66, rac-2-[2-(5-Butyl-2-thienyl)ethyl]-3,4-dihydro-2,5,7,8-tetramethyl-2H-1-benzopyran-6-ol] |
| 7.80 | Cc1c(C)c2c(c(C)c1O)CCC(C)(C#Cc1ccccn1)O2 (racemic) [Example 15, rac-3,4-Dihydro-2,5,7,8-tetramethyl1-2-[(2-pyridinyl)ethynyl]-2H-1-benzopyran-6-ol] |
| 7.34 | Cc1c(C)c2c(c(C)c1O)CCC(C)(CCc1ccc(-c3cccnc3)cc1)O2 (racemic) [Example 64, rac-3,4-Dihydro-2,5,7,8-tetramethyl-2-{2-[4-(3-pyridinyl)-phenyl]ethyl}-2H-1-benzopyran-6-ol] |
| 6.77 | Cc1c(C)c2c(c(C)c1O)CCC(C)(CCc1ccc(-c3ccccn3)s1)O2 (racemic) [Example 65, rac-3,4-Dihydro-2,5,7,8-tetramethyl-2-{2-[5-(2-pyridinyl)-2-thienyl]ethyl}-2H-1-benzopyran-6ol] |
| 7.82 | Cc1c(C)c2c(c(C)c1O)CCC(C)(CCc1ccc(O)c(O)c1)O2 (racemic) [Example 61, rac-4-[2-(3,4-Dihydro-6-hydroxy-2,5,7,8-tetramethyl-2H-1-benzopyran-2-yl)ethyl]-1,2-benzenediol] |
| 7.22 | Cc1c(C)c2c(c(C)c1O)CCC(C)(CCc1ccccn1)O2 (racemic) [Example 58, rac-3,4-Dihydro-2,5,7,8-tetramethyl-2-[2-(2-pyridinyl)ethyl]-2H-1-benzopyran-6-ol] |
| 7.40 | Cc1c(C)c2c(c(C)c1O)CCC(C)(C#Cc1cccnc1)O2 (racemic) [Example 14, rac-3,4-Dihydro-2,5,7,8-tetramethyl-2-[(3-pyridinyl)ethynyl]-2H-1-benzopyran-6-ol] |
